{"source": "paper PMC10677270", "about": "“2554. What’s Weight Got to Do with It? Prospective Pharmacokinetic/Pharmacodynamic Evaluation of Fixed-Dose Daptomycin” (Open Forum Infectious Diseases, 2023)", "experiment": "Steady-state pharmacokinetic/pharmacodynamic evaluation of fixed-dose (750 mg) daptomycin in patients with Staphylococcus aureus infections", "description": "This study evaluated systemic exposure of a fixed dose (750 mg) of DAP in patients with Staphylococcus aureus infections. Methods Adult non-ICU patients with CrCl ≥ 30 mL/min admitted to our academic medical center warranting DAP for a S. aureus infection were eligible for enrollment. DAP 750 mg was infused over 30 minutes every 24 hours. At steady state, concentrations were obtained pre-dose (0.5 hours) and 1, 12, and 24 hours after the start of infusion. Concentrations were measured using a validated LC-MS assay. Pharmacokinetic (PK) analysis was performed using first-order equations and stratified by weight: low (< 65 kg), normal (65-85 kg), and high ( > 85 kg). Therapeutic AUC24 (≥ 666 mg*hr/L) and elevated trough (Cmin > 24.3 mg/L) were the efficacy and safety targets, respectively."}
{"smiles": "CCCCCCCCCC(=O)N[C@@H](Cc1c[nH]c2ccccc12)C(=O)N[C@H](CC(N)=O)C(=O)N[C@@H](CC(=O)O)C(=O)N[C@@H]1C(=O)NCC(=O)N[C@@H](CCCN)C(=O)N[C@@H](CC(=O)O)C(=O)N[C@H](C)C(=O)N[C@@H](CC(=O)O)C(=O)NCC(=O)N[C@H](CO)C(=O)N[C@@H]([C@H](C)CC(=O)O)C(=O)N[C@@H](CC(=O)c2ccccc2N)C(=O)O[C@@H]1C", "note": "[DAP, daptomycin]", "values": [{"measurement": "Ke", "setting": "all patients n=22, DAP 750 mg infused over 30 min every 24 h, LC-MS, first-order equations, median, IQR [0.046, 0.098]", "value": 0.078, "unit": "h⁻¹"}, {"measurement": "Cmin", "setting": "all patients n=22, DAP 750 mg infused over 30 min every 24 h, LC-MS, median, IQR [7.3, 29.9]", "value": 10500, "unit": "ng/mL"}, {"measurement": "Therapeutic AUC24 (>= 666 mg*hr/L) achieved, share of patients", "setting": "all patients, 14/22, DAP 750 mg every 24 h, efficacy target", "value": 64, "unit": "%"}, {"measurement": "Therapeutic AUC24 (>= 666 mg*hr/L) achieved, share of patients", "setting": "females n=12, DAP 750 mg every 24 h", "value": 83, "unit": "%"}, {"measurement": "Therapeutic AUC24 (>= 666 mg*hr/L) achieved, share of patients", "setting": "males n=10, DAP 750 mg every 24 h", "value": 40, "unit": "%"}]}
